According to ChEMBL document CHEMBL1201862, “PubChem BioAssay data set” (2004):
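Assay format: 96-well plates, 48-hour exposure. GI50 = concentration required for 50% inhibition of growth.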 Active and inactive are the calls of the source. Rule as the data show it: active = GI50 up to about 1.1 µM and inactive = higher. Non-standard residues stand in square brackets, D forms with d. Residues, ends and D or L forms follow the SMILES beside them. ξ: configuration not given here. *: point of attachment. NMeF = CN[C@@H](Cc1ccccc1)C(=O)O; ξNMeV = CNC(C(=O)O)C(C)C; Boc = CC(C)(C)OC(=O)*; OBn = c1ccc(CO*)cc1

Experiments:
Experiment in all cases: NCI anticancer screen, dose series, 48 h
[1] = system: M14
[2] = system: SN12C
[3] = system: NCI-H522
[4] = system: NCI-H460
[5] = system: SF-268
[6] = system: MDA-MB-435
[7] = system: SR
[8] = system: SNB-75
[9] = system: SK-MEL-5
[10] = system: HCT-116
[11] = system: RXF 393
[12] = system: PC-3
[13] = system: HOP-92
[14] = system: OVCAR-5
[15] = system: Hs-578T
[16] = system: EKVX
[17] = system: U-251
[18] = system: MCF7
[19] = system: SF-539
[20] = system: SK-OV-3

Measured: GI50

NCCSCc1ccccc1Cl
inactive: [1] 63.4 µM | [2] 43.4 µM | [3] 48.2 µM | [4] 31.3 µM | [5] 95.7 µM | [6] 36 µM | [7] 18.6 µM | [8] 37.5 µM | [9] 63 µM | [10] 46.9 µM | [11] 83.8 µM | [12] 30.3 µM | [13] 68.2 µM | [14] > 100 µM | [15] 73.5 µM | [16] 34.3 µM | [17] 31.6 µM

Cc1ccccc1C1OC1C(=O)c1ccccc1N (configuration not stated)
inactive: [1] 47.3 µM | [2] 78.7 µM | [18] 55.3 µM | [4] 63.8 µM | [19] 29.9 µM | [20] > 100 µM | [5] > 100 µM | [6] 20.7 µM | [7] > 100 µM | [9] 44.5 µM | [10] 44.1 µM | [11] 90.4 µM | [12] 46.6 µM | [13] > 100 µM | [14] > 100 µM | [17] > 100 µM

CC1(C)OC(CCO)CN1C(=O)OCc1ccccc1 (configuration not stated)
inactive: [1] > 100 µM | [2] > 100 µM | [3] 74.6 µM | [18] > 100 µM | [4] > 100 µM | [19] > 100 µM | [20] > 100 µM | [6] > 100 µM | [7] > 100 µM | [8] 92 µM | [9] > 100 µM | [10] > 100 µM | [11] > 100 µM | [12] > 100 µM | [13] > 100 µM | [14] > 100 µM | [16] > 100 µM | [17] > 100 µM

Brc1ccc2c(c1)-c1nc3c(cc1CC2)CCc1ccc(Br)cc1-3
inactive: [1] > 100 µM | [2] > 100 µM | [3] > 100 µM | [18] > 100 µM | [4] > 100 µM | [20] > 100 µM | [5] > 100 µM | [6] > 100 µM | [8] > 100 µM | [9] > 100 µM | [10] > 100 µM | [11] > 100 µM | [12] > 100 µM | [13] > 100 µM | [14] > 100 µM | [16] > 100 µM | [17] > 100 µM

CCOC(=O)C1(C/C=C/CBr)Cc2ccccc2C1=O (configuration not stated)
inactive: [1] 2.83 µM | [2] 1.99 µM | [3] 1.63 µM | [18] 2.48 µM | [4] 1.75 µM | [19] 1.81 µM | [20] 8.69 µM | [5] 2.91 µM | [6] 1.72 µM | [8] 5.86 µM | [9] 2.67 µM | [10] 3.71 µM | [11] 1.55 µM | [12] 4.13 µM | [14] 3.02 µM | [15] 5.53 µM | [16] 14.6 µM | [17] 3.58 µM

CCOC(=O)CC(c1ccccc1)C(C)(C(=O)OCC)C(=O)OCC (configuration not stated)
inactive: [1] > 100 µM | [2] > 100 µM | [3] > 100 µM | [18] > 100 µM | [4] > 100 µM | [19] > 100 µM | [20] > 100 µM | [5] > 100 µM | [7] 61.2 µM | [8] 87.3 µM | [9] > 100 µM | [10] > 100 µM | [11] 3.23 µM | [12] 77.6 µM | [14] > 100 µM | [15] > 100 µM | [16] > 100 µM | [17] > 100 µM

CN(c1nc(=[N+](C)C)ss1)C1CCCCC1
inactive: [1] > 100 µM | [2] > 100 µM | [3] > 100 µM | [4] 13.3 µM | [19] > 100 µM | [20] > 100 µM | [5] 60.1 µM | [7] > 100 µM | [8] > 100 µM | [9] 68.7 µM | [10] > 100 µM | [11] > 100 µM | [13] > 100 µM | [14] > 100 µM | [16] > 100 µM | [17] 33.4 µM

CC1=C2CC(C)(C)CC(=O)C2(C)CCC1=O (configuration not stated)
inactive: [1] > 100 µM | [2] > 100 µM | [3] > 100 µM | [18] > 100 µM | [4] > 100 µM | [19] > 100 µM | [20] > 100 µM | [5] > 100 µM | [7] 94.2 µM | [8] > 100 µM | [9] > 100 µM | [10] > 100 µM | [12] > 100 µM | [14] > 100 µM | [15] > 100 µM | [16] > 100 µM | [17] > 100 µM

CN(CCO)c1nc(=O)c2c([nH]1)CCC2
inactive: [1] > 100 µM | [2] > 100 µM | [3] > 100 µM | [4] > 100 µM | [19] > 100 µM | [20] > 100 µM | [5] > 100 µM | [7] > 100 µM | [8] 43.9 µM | [9] > 100 µM | [10] > 100 µM | [11] > 100 µM | [13] > 100 µM | [14] > 100 µM | [16] > 100 µM | [17] > 100 µM

Cc1c2c(n(CCc3ccccc3)c1C)N(C)N=C(C#N)S2(=O)=O
inactive: [1] > 100 µM | [2] > 100 µM | [3] > 100 µM | [18] > 100 µM | [4] > 100 µM | [19] 7.69 µM | [20] > 100 µM | [5] > 100 µM | [6] > 100 µM | [7] > 100 µM | [8] > 100 µM | [9] > 100 µM | [10] > 100 µM | [11] > 100 µM | [12] > 100 µM | [14] > 100 µM | [16] > 100 µM | [17] > 100 µM

CCN(CC)CCCNC(=O)c1cc2cc(NC(=O)c3cc4cc([N+](=O)[O-])ccc4[nH]3)ccc2[nH]1
inactive: [1] > 100 µM | [2] > 100 µM | [18] 48.1 µM | [4] > 100 µM | [19] 48.5 µM | [20] > 100 µM | [5] > 100 µM | [6] 51.1 µM | [7] > 100 µM | [8] > 100 µM | [9] > 100 µM | [10] > 100 µM | [11] > 100 µM | [12] > 100 µM | [13] 37.5 µM | [14] > 100 µM | [16] > 100 µM | [17] > 10 µM

CC(=O)Oc1c2oc3ccc(Cl)cc3c(=O)c2c(O)c2ccsc12
inactive: [1] > 100 µM | [2] > 100 µM | [18] > 100 µM | [4] > 100 µM | [19] > 100 µM | [20] > 100 µM | [5] > 100 µM | [6] > 100 µM | [8] 52.4 µM | [9] > 100 µM | [10] > 100 µM | [11] > 100 µM | [12] > 100 µM | [13] > 100 µM | [14] > 100 µM | [15] 33.3 µM | [16] > 100 µM | [17] > 100 µM

C(=N\c1ccc2c(c1)Cc1ccccc1-2)/c1ccccn1
inactive: [1] > 100 µM | [2] 28.4 µM | [3] 26.7 µM | [4] 60.3 µM | [5] 76.4 µM | [6] 77.8 µM | [7] 24.9 µM | [8] 67.6 µM | [9] 61.5 µM | [10] 30.5 µM | [11] > 100 µM | [12] 38.7 µM | [13] > 100 µM | [14] > 100 µM | [15] 92.3 µM | [16] 28.8 µM | [17] 63.1 µM

COc1ccc2c(c1)C(=O)C1(C2)[C@H](c2ccccc2)C2C(=O)c3cc(OC)ccc3C2[C@H]1c1ccccc1 (some centres not stated)
inactive: [1] > 100 µM | [2] > 100 µM | [3] > 100 µM | [4] > 100 µM | [19] > 100 µM | [20] > 100 µM | [5] > 100 µM | [6] > 100 µM | [7] > 100 µM | [8] 92.3 µM | [9] > 100 µM | [10] > 100 µM | [11] > 100 µM | [12] 16.6 µM | [13] > 100 µM | [14] > 100 µM | [15] 74.6 µM | [16] > 100 µM | [17] > 100 µM

O=c1c(-c2ccccc2F)coc2cc(F)ccc12
inactive: [1] > 100 µM | [2] > 100 µM | [3] 37.7 µM | [4] > 100 µM | [19] 91.4 µM | [20] > 100 µM | [5] > 100 µM | [6] > 100 µM | [8] 24.2 µM | [9] > 100 µM | [10] > 100 µM | [11] > 100 µM | [12] > 100 µM | [13] > 100 µM | [14] > 100 µM | [15] > 100 µM | [16] > 100 µM | [17] 97.7 µM

CC(C)C(C(=O)N1CCC[C@@H]1C(=O)OCc1ccccc1)N(C)C(=O)C(C(C)C)N(C)C(=O)[C@H](Cc1ccccc1)N(C)C(=O)[C@H](NC(=O)OC(C)(C)C)C(C)C (some centres not stated) (Boc-[dV][NMeF][ξNMeV][ξNMeV][dP]-OBn)
inactive: [1] > 100 µM | [2] > 100 µM | [3] > 100 µM | [4] > 24.3 µM | [19] > 100 µM | [20] > 100 µM | [5] > 86.1 µM | [7] > 29.8 µM | [8] 9.91 µM | [9] 14.9 µM | [10] 14.5 µM | [11] > 100 µM | [13] 68.4 µM | [14] > 100 µM | [16] > 65.8 µM | [17] > 100 µM
